# Earlier results, collected in patent publication US8951557B2, “Sustained release solid formulations and methods of manufacturing the same” (Hana Pharm. Co. Ltd., priority 2008, dated 2015).
# How the values were obtained:
# [1] = 5 mg rapid release tablet administered
# [2] = administered orally, compared to direct administration into bloodstream
structure (smiles),measurement,setting,value
COc1ccc2c3c1O[C@H]1C(=O)CC[C@@]4(O)[C@@H](C2)N(C)CC[C@]314.Cl [Oxycodone hydrochloride],time the analgesic effect sustains,[1],4 to 6 h
same,bioavailability,[2],60-87%
